Assay results from ChEMBL document CHEMBL1129075, “Synthesis and binding activity of some pyrazolo[1,5-c]quinazolines as tools to verify an optional binding site of a benzodiazepine receptor ligand” (J Med Chem, 1996).

test system: GABA-A receptor; anion channel; experiment: Displacement of [3H]flunitrazepam at GABA-A benzodiazepine receptor in rat brain cortical membranes (insoluble); format: cell membranes, Membrane

Ki | SMILES
Insoluble | Oc1nc2ccccc2c2cc(-c3nnco3)nn12

molecular target: GABA-A receptor; anion channel; experiment: Displacement of [3H]flunitrazepam at GABA-A benzodiazepine receptor in rat brain cortical membranes; format: cell membranes, Membrane

Ki [nM] | SMILES
> 10000 | CCOC(=O)c1cc2c3ccccc3n(CC)c(=O)n2n1
> 10000 | CCOC(=O)c1cc2c3ccccc3ncn2n1
28 | CCOC(=O)c1cc2c3ccccc3[nH]c(=O)n2n1
> 10000 | Sc1nc2ccccc2c2cc(-c3ccccc3)nn12
41 | Oc1nc2ccc(Cl)cc2c2cc(-c3ccco3)nn12
> 10000 | Cn1c(=O)n2nc(-c3ccccc3)cc2c2ccccc21
105 | Oc1nc2ccc(Cl)cc2c2cc(-c3ccccc3)nn12
> 10000 | CCOC(=O)c1cc2c3ccccc3n(C)c(=O)n2n1
53 | Oc1nc2ccccc2c2cc(-c3ccccn3)nn12
16 | Oc1nc2ccccc2c2cc(-c3ccco3)nn12
3290 | CCOC(=O)c1cc2c3ccccc3nc(S)n2n1
> 10000 | O=C(O)c1cc2c3ccccc3nc(O)n2n1
50 | CCOC(=O)c1cc2c3cc(Cl)ccc3nc(O)n2n1
6570 | c1ccc(-c2cc3n(n2)CNc2ccccc2-3)cc1
3150 | O=C(Oc1ccccc1)c1cc2c3ccccc3nc(O)n2n1
5300 | Oc1nc2ccccc2c2cc(-c3ccc(Cl)cc3)nn12
22 | COC(=O)c1cc2c3ccccc3[nH]c(=O)n2n1
> 10000 | c1ccc(-c2cc3c4ccccc4ncn3n2)cc1
4590 | Cc1nnc(-c2cc3c4ccccc4nc(O)n3n2)o1
59 | Oc1nc2ccccc2c2cc(-c3ccccc3)nn12
70 | CCOC(=O)c1cc2n(n1)CNc1ccccc1-2
434 | CC(C)OC(=O)c1cc2c3ccccc3nc(O)n2n1
7.4 | Oc1nc2ccccc2c2cc(-c3cccs3)nn12

SMILES | Ki [nM]
CCOC(=O)c1cc2c(cn1)[nH]c1ccccc12 | 4.5
